Columns and labels:
[1] = tested on: Arabidopsis thaliana plants; test: Screening of library of transformed plants expressing candidate BARPs for new phenotypes; format: in vivo; conditions: transgenic Arabidopsis thaliana expressing the BARP, scored from emergence to senescence
From the text: In the present example, the methods of the present disclosure were used to generate a library of test nucleic acids encoding a plurality of candidate BARPs, each having a core 6 amino acid random peptide sequence flanked by two cysteine residues. The sequences were also flanked by start and stop codons and Gateway® sequences, such as illustrated in FIG. 1. PCR was used with primers corresponding to the known Gateway flanking sequences to generate the test nucleic acid library. The oligonucleotides were then cloned into bacterial vectors including genes for kanamycin resistance to create a recombination vector library. The vectors were then moved to Agrobacterium tumefaciens strain […] and used to transform Arabidopsis thaliana plants. Seeds were collected from the transformed plants and used to grow new plants. These plants were observed from seedling through the plant lifecycle and observed for new phenotypes. Several new phenotypes emerged, DNA was extracted from the plants displaying new phenotypes, and the sequence of the candidate BARP from the plants was determined. The procedures and results are described in detail below.
The test nucleic acid sequences were synthesized using conserved initiator and terminator sequences flanking 18 random nucleotides, which provides a peptide that is ten amino acids long, with six of the core amino acids randomized, following a Met-Ala-Cys and ending with a Cys-term. This template is illustrated in FIG. 1. In the present example, the corresponding nucleic acid sequence was […] (SEQ ID NO: 5; nucleotides 14-46 of SEQ ID NO: 1). The cysteine residues in this case provide potential for formation of disulfide bonds that may impart additional structure to the adjacent amino acid loop. Although in this example 18 random nucleotides (identified as “N” in SEQ ID NOs: 1 and 5) were used, any number may be used, as long as it is a multiple of three.
To construct the library of random-core BARP sequences, the above DNA sequence was synthesized as an oligonucleotide sequence, along with flanking sequences corresponding to the Gateway® recombination sequences. The middle portion of the sequence, represented by “N” in FIG. 1, were randomized nucleotides. Known synthesis techniques were used to build the sequences, resulting in a library of PCR products containing test nucleic acid sequences (start codon, spacer codon, cysteine codon, 18 random nucleotides encoding a core candidate BARP sequence, second cysteine codon, and stop codon) flanked by Gateway recombination sequences. Although Gateway® sequences were used in the present examples, other recombination cloning primer sequences could be used or specifically designed.
The library of PCR products containing random test sequences was amplified using PCR based on flanking primers containing Gateway recombination sequences. These reactions produced a population of PCR products each containing the core peptide test sequence flanked by Gateway recombination sequences. These PCR products were introduced to the vector pDONR222 using Gateway recombination, and then transformed into E. coli genotype DH5α. The transformation vector also included the NPTII gene for kanamycin resistance. The E. coli cells were plated on kanamycin plates at low density to obtain single-colony separation. The single colonies each contained a separate plasmid bearing a random peptide sequence.
The colonies were recovered from plates in liquid medium, and the plasmids were isolated. The isolated plasmids represented a library of many independent, random sequences (encoding candidate BARPs) flanked by ‘start’ and ‘stop’ sequences. […]

[2] = tested on: Arabidopsis thaliana plants; test: Independent replication of peptide-induced phenotypes in independent transformant lines; format: in vivo; conditions: BARP sequence re-introduced into Arabidopsis thaliana
Description: A number of first-transformed generation plants were prepared and phenotypes were observed using the methods described in Example 1, above. In this example some 12-amino-acid-long candidate BARPs were also synthesized and tested. The procedures were the same as for the 6-aa BARPs described in Example 1. These phenotypes were also observed to be stable and inherited in subsequent generations. To verify that the effects observed are due to the expressed peptide and not to other less-likely positional/insertional causes, in this Example, a substantial number of the of the candidate 6 and 12 amino-acid-long BARPs were sequenced and separately transformed into independent plants. […] One microliter was used in a PCR reaction under standard conditions, and using primers corresponding to the attachment (recombinational cloning sequences) of the Gateway vector, the corresponding BARP sequences was amplified. This sequences were then recombined into the pDONR222 vector and then re-ligated into the binary pKWDG2 over-expression vector as described above. This sequence was then re-introduced into Arabidopsis thaliana plants using the floral dipping strategy and selection as noted above. The seedlings were then analyzed for the phenotype as defined by the original transformant. Recapitulation of the phenotype in multiple, independent transformation events provided high evidence of a specific physiological effect of the peptide.

[3] = tested on: Arabidopsis thaliana plants; test: Quantitative analysis of flowering time of CBF6AA-15 transformant lines; format: in vivo; conditions: lines 26, 29, 31 versus wild type Col-0
From the text: FIG. 4A is a digital image comparing a wild type A. thaliana plant with 3 separate lines transformed with the 6AA-15 BARP. A bar graph comparing the number of rosette leaves for each line at the time of flowering is illustrated in FIG. 4B. FIGS. 4C-4F are a series of graphs illustrating quantitative analysis of flowering time for the plant lines illustrated in FIG. 4A, with a minimum of 113 plants analyzed per line.
The observed phenotype was also confirmed by the observed number of rosette leaves present on the plant at the time of flowering, where transformants flowered days earlier and after producing fewer leaves. […] A minimum of 113 plants were analyzed per line, and the number of days until flowering was recorded. FIGS. 4C-4F illustrate the distribution of flowering times of wild type plants vs. the three transformant lines, with the mean shifting from 36 days in wild-type plants to […] in the transgenic lines.

Arabidopsis plants [4] = test: Plant growth and phenotyping of PEP6 / PEP12 transgenic plants; format: in vivo, Arabidopsis thaliana; conditions: transgenic plant in soil; normal-sized plants 25 mm to 30 mm
From the text: Two libraries encoding six- and twelve-random amino acid cyclized peptides (denoted PEP6 and PEP12, respectively) were constructed in binary vectors (as illustrated in FIG. 9) using a Gateway cloning strategy and transformed into Arabidopsis. More than 1,500 transgenic plants with the PEP6 T-DNA inserts were isolated and more than 600 transgenic plants were isolated carrying the PEP12 insert, representing a survival ratio of 1.8% and 1.2% respectively under kanamycin selection. To ensure library representation in the population, DNA was prepared from at least fifty transgenic plants, including ten that had small rosette diameter (5 mm to 10 mm) (e.g., those having BARP sequences SEQ ID NO: 14, 16, 6, 19, 21, 23, 26, 28, 30, and 32) compared to normal-sized plants (25 mm to 30 mm; see Table 2). The nucleotide sequences of all amplified random peptide open reading frames (rpORFs) were different, indicating representation of library diversity was maintained throughout the cloning and transformation process. Several phenotypes were visually apparent. […] Some plants showing multiple growth defects were recorded in each phenotype. Bolting plants with multiple inflorescences were transformed with the PEP6 or PEP12 destination library through the floral dipping method (Clough and Bent, 1998, incorporated herein by reference). For selection, seeds were surface sterilized by 70% ethanol for 5 min and 10% bleach for 20 min. Surface-sterilized seeds were plated on ½× MS basal medium with 0.5% Phyto Agar (cat. # M10200 and # A20300, Research Products International) and 50 μg/ml kanamycin for selection. Transgenic seedlings were identified by GFP expression or resistance to kanamycin. Transformed seedlings were grown to the 3-5 true leaf stage on plates and transferred to soil. DNA was extracted from each seedling (Edwards et al., 1991 incorporated herein by reference) for inserted nucleotide sequence identification. An approximately 500 bp DNA fragment containing the random peptide ORF and part of pK7WG2D vector sequence was amplified using primers PEP-F and PEP-R (SEQ ID NOs: 35 and 36, respectively) listed in Table 4 and sequenced. Arabidopsis plants were grown in soil at 20° C. under 16 hour light/8 hour dark conditions. The characterization of phenotypic variations was based on the comparison among seedlings grown in the same pot or flat.

Arabidopsis plants [5] = test: Flowering time measurement; format: in vivo, Arabidopsis thaliana
From the text: The rpORF were cloned from this seedling PEP6-15 and retransformed into Col-0. A total of 15 independent transgenic lines were isolated and measured on their flowering time. About 75% independent lines had earlier flowering time compared to wild type plants. Thereafter three representative lines 1, 2 and 3, were chosen for detailed analyses (FIG. 11A). […] Thus, the BARP for PEP6-15 (SEQ ID NO: 6, nucleotide sequence SEQ ID NO: 17) appears to produce an earlier flowering time phenotype. […] Three independent PEP6-15 transgenic lines with no transgene segregation were grown directly in soil for the measurement of flowering time. Every line was planted in three 10 cm×10 cm×11 cm pots, and approximately twenty seeds were sown in each pot. The flowering time was recorded as the number of rosette leaves when the inflorescence stem was 0.5-1 cm long. When the majority of plants had flowered, measurement was concluded.

Arabidopsis seedlings = test: Effects of lethal sequences: growth of PEP6-3 seedlings with or without sucrose; format: in vivo, Arabidopsis thaliana
From the text: If these seedlings were transplanted to media supplemented with 2% sucrose some of them survived. These surviving seedlings were genotyped. One of these seedlings grew on a sucrose plate for one month and in soil for another 2 months before bolting and setting seeds. The rpORF was re-cloned and transformed into Col-0 Arabidopsis to generate independent transformation lines. […] The T2 seeds from the original line and 5 independent lines were sown on a ½ MS plate with or without sucrose under kanamycin selection. Seeds on both types of media germinated at a rate of 95%. […] The effect of the peptide was tested in petunia. […] Thus, the BARP for PEP6-3 (SEQ ID NO: 14, nucleotide sequence SEQ ID NO: 13) appears to produce phenotype that requires sucrose media.
It is possible that the phenotypes observed were not related to the peptide sequence, but instead were artifacts of T-DNA integration, since insertion of the CaMV35S-bearing T-DNA cassette could potentially disrupt a gene where an effect could be observed in its heterozygous form, or the viral promoter could activate expression of neighboring genes, resulting in an observable phenotype. Thus, to generate a series of independent transformants for each sequence of interest, the random peptide ORFs from transgenic plants showing aberrant phenotypes were amplified using attB universal adaptor primers, and cloned into pDONR222 and pK7WG2D vectors via BP and LR reactions, respectively. These constructs were then transformed into Arabidopsis to generate additional independent transgenic lines. Each series of independent transgenic lines containing the same random peptide ORF were grown under the same conditions used to produce the original phenotype. Transcript abundance of the random peptide ORF and the control gene Ubiquitin family protein (UFP, At4g01000) in every transgenic line was analyzed by semi-quantitative RT-PCR using attB1 and attB2 adaptor primers or UFP-rF and -rR primers (SEQ ID NOs: 37-38), respectively.
The seedling was moved to media containing sucrose where it then developed normally. Five independent lines (1, 2, 3, 4 and 6) containing the PEP6-3 sequence (SEQ ID NO: 13) were grown under kanamycin selection on ½ MS medium with or without the supplement of 2% sucrose in dark for the first 7 d and then exposed to light. Without sucrose, some seedlings with only the two cotyledons or the first two true leaves died eventually, and only a few seedlings fully developed. The proportion of seedlings developed with the first two true leaves or fully developed was recorded.

Petunia hybrida = test: Petunia transformation with PEP6-3; format: in vivo; conditions: five independent transgenic shoots, versus controls
Description: PEPS-3 was introduced into Petunia hybrida by Agrobacterium tumefaciens-mediated transformation of leaf fragments, following a modified protocol by Jorgensen et al, (1996), incorporated herein by reference. Leaves were dissected into 4×5 mm fragments and immersed in Agrobacterium solution for 15 min, then transferred to MS agar plates supplemented with TDZ (1 μg/mL), galacturonic add (212 μg/mL) and acetosyringone (8 μg/mL). After 2 d in darkness, explants were transferred to MS medium containing TDZ (1 μg/mL), carbenicillin (500 μg/mL) and kanamycin (150 μg/mL) for two weeks. Callusing explants were then transferred to light on MS medium containing only antibiotics. After the appearance of shoots, these were transferred to MS medium containing antibiotics and IBA (0.8 μg/mL), for root formation.

[6] = ½ MS plate without sucrose, kanamycin selection, T2 seeds

Sequence | phenotype [1] | phenotype in independent transformant lines [2] | number of rosette leaves at the time of flowering [3] | rosette size (Arabidopsis plants [4]) [mm] | bolting earlier than Col-0 (Arabidopsis plants [5]; lines 1, 2 and 3, inferred from rosette leaf number) [days] | number of rosette leaves when bolting (Arabidopsis plants [5]; lines 1, 2 and 3, 16 hour light/8 hour dark, Col-0 11.5) [rosette leaves] | size of independent transgenic lines (Arabidopsis seedlings; 20 independent transgenic lines versus control lines) | development of germinated seeds on sucrose plates (Arabidopsis seedlings; ½ MS plate with 2% sucrose) | germination rate (Arabidopsis seedlings; ½ MS plate with or without sucrose (both types of media)) [%] | transgenic seedlings forming true leaves (Arabidopsis seedlings; [6]) [%] | transgenic seedlings growing into fully-developed plants (Arabidopsis seedlings; [6]) [%] | growth of transgenic petunia shoots (Petunia hybrida)
MACDFNFGIC (chemically synthesized peptide sequence of BARP CBF6AA-15 associated with early flowering behavior) | tiny, slightly early flowering | significant early-flowering phenotype | fewer number of leaves at the time of flowering than the wild type | 5 | 3 to 4 | 10 | – | – | – | – | – | –
MACRGVDSAC (chemically synthesized peptide sequence of BARP PEP6-3) [BARP producing sucrose dependent phenotype] | – | – | – | 5 | – | – | grew smaller than control lines | grew into fully-developed plants | 95 | < 30 | < 10 | grew slowly compared to controls before turning pale and dying after several weeks

From US10801023B2, “Methods of identifying biologically active random peptides in plants and libraries of plants expressing candidate biologically active random peptides” (University of Florida Research Foundation, Inc., priority 2015, dated 2020)
